Values quoted from earlier work as cited in patent US5212165A, “Method for rehabilitating the vasorelaxant action of the coronary arteries impaired through atherosclerosis or hypercholesterolemia employing an ACE inhibitor” (E. R. Squibb & Sons, Inc., priority 1989, dated 1993).

Key:
isolated rat hearts = settings: van Gilst et al; cited from earlier work
[1] = system: vascular relaxation in response to EN-D (ACh) and EN-I (Na nitroprusside) agonists; settings: oral; rats; cited from earlier work
[2] = system: patients with Raynaud's phenomenon; settings: cited from earlier work

Question: For `C[C@H](CS)C(=O)N1CCC[C@H]1C(=O)O` [captopril, 1-[(2S)-3-mercapto-2-methylpropionyl]-L-proline], which coronary vasodilatory mechanism (isolated rat hearts) is on record?
Answer: potentiates the effect of locally increased BK

Question: And the “vascular relaxations in response to EN-D (ACh) and EN-I (Na nitroprusside) agonists” value [1]?
Answer: differentially affected vascular relaxations

Question: And the marked subjective improvement ([2]; 20 patients with primary or secondary Raynaud's phenomenon, Trubestein et al)?
Answer: 14 cases

Question: And the “incidence or severity of peripheral vasospasm” value ([2]; Raynaud's with hypertension secondary to scleroderma, Coffman)?
Answer: does not decrease the incidence or severity of peripheral vasospasm

Question: And the digital circulation ([2]; one patient, Miyazaki et al)?
Answer: improved a patient's digital circulation

Question: What about the “benefit in Raynaud's phenomenon and chronic leg ulceration” value ([2]; one patient, Rustin et al 1989) of the same compound?
Answer: no benefit

Question: And the cutaneous blood flow ([2]; p.o., 15 patients, placebo-controlled, double-blind cross-over, Rustin et al 1987)?
Answer: significantly improved cutaneous blood flow

Question: What about the “frequency or severity of attacks” value ([2]; p.o., 15 patients, Rustin et al 1987) of the same compound?
Answer: no effect on frequency or severity of attacks

Question: And the “frequency and severity of ischemic attacks” value ([2]; patients with Raynaud's disease, Tosi et al)?
Answer: significantly decreased the frequency and the severity of ischemic attacks

Question: What about the “ischemic attacks in patients with scleroderma” value ([2]; patients with scleroderma, Tosi et al) of the same compound?
Answer: did not affect the attacks
